The values that follow come from US12390437B2, “Itaconic acid derivatives and uses thereof intreating an inflammatory disease or a disease associated with an undesirable immune response” (Sitryx Therapeutics Limited, priority 2019, dated 2025).

The pIC50 is the negative decadic logarithm of the IC50, by convention in mol/L. What is called Emax is the maximal effect, on the per cent scale that the assay sets. As a reminder, the pEC50 is the EC50 on a negative log10 scale, so that one unit is a factor of ten.

Series [1] relates to IL-1β cytokine output from THP-1s. Kind of series: THP-1 AlphaLISA IL-1β cytokine assay. The conditions noted are these: Homo sapiens, THP-1, PMA-differentiated THP-1 cells, LPS 24 hr then Nigericin 1 hour; read-out: IL-1β (IC50). It is filed as cell-based, human. The method, boiled down: (§1)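 THP-1 cells, PMA-differentiated 72 h; 30 min compound pre-incubation; LPS 24 h; nigericin 1 h; 37 °C/5% CO2. Supernatants read by AlphaLISA kit. IC50 from % inhibition vs concentration, normalised to +LPS (high) and −LPS (low) controls.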
A general note: Alpha assays give light when donor and acceptor beads are brought close together.

For series [2], the system named is IL-6 cytokine output from THP-1s. Briefly: THP-1 AlphaLISA IL-6 cytokine assay. The class given is cell-based, human. The conditions noted are these: Homo sapiens; PMA-differentiated THP-1 cells, LPS 24 hr then Nigericin 1 hour. In short, it runs like this:
as §1

The test system of another series is NRF2. Briefly: NRF2 +/-GSH activation assay (DiscoverX PathHunter NRF2 translocation kit, U2OS cells). The class given is cell-based. The conditions noted are these: Homo sapiens, GSH condition not stated in Table 5; for Emax: U2OS, normalised to dimethyl fumarate 'High' control, read-out: NRF2 activation Emax; for pEC50: U2OS PathHunter cells, 6 hours, read-out: NRF2 activation EC50. How it is done:
Measuring Compound Activation Effects on the Anti-Inflammatory Transcription Factor NRF2 in DiscoverX PathHunter NRF2 Translocation Kit
Potency and efficacy of compounds of formula (IW-1) against the target of interest to activate NRF2 (nuclear factor erythroid 2-related factor 2) were determined using the PathHunter NRF2 translocation kit (DiscoverX). The NRF2 translocation assay was run using an engineered recombinant cell line, utilising enzyme fragment complementation to determine activation of the Keap1-NRF2 protein complex and subsequent translocation of NRF2 into the nucleus. Enzyme activity was quantified using a chemiluminescent substrate consumed following the formation of a functional enzyme upon PK-tagged NRF2 translocation into the nucleus.
The assay was run under either +/−GSH (glutathione) conditions to determine the attenuating activities of GSH against target compounds.
Additionally, a defined concentration of dimethyl fumarate was used as the ‘High’ control to normalise test compound activation responses to.
U2OS PathHunter eXpress cells were thawed from frozen prior to plating. Following plating, U2OS cells were incubated for 24 hrs (37° C./5% CO2) in commercial kit provided cell medium.
Following 24 hrs of U2OS incubation, cells were directly treated with an appropriate final concentration of compound, for −GSH conditions, or for +GSH conditions, an intermediate plate containing 6× working concentrations of compound stocks was prepared in a 6 mM working concentration of GSH solution (solubilised in sterile PBS). Following a 30 minute compound-GSH pre-incubation (37° C./5% CO2) for +GSH treatment, plated U2OS cells were incubated with an appropriate final concentration of compound and GSH.
Following compound (+/−GSH) treatment, the U2OS plates were incubated for a further 6 hours (37° C./5% CO2) before detection reagent from the PathHunter NRF2 commercial kit was prepared and added to test plates according to the manufacturer's instructions. Subsequently, the luminescence signal detection in a microplate reader was measured (PHERAstar®, BMG Labtech).
Percentage activation was calculated by normalising the sample data to the high and low controls used within each plate (+/−DMF). Percentage activation/response was then plotted against compound concentration and the 50% activation concentration (EC50) was determined from the plotted concentration-response curve.

A short description of series [3]: Mouse pharmacokinetic study, intravenous dosing. It is filed as in vivo. The conditions noted are these: male, C57BL/6, mouse, iv, plasma, 10 mg/kg i.v., read-out: Parent compound concentration following intravenous administration. How it is done:
Pharmacokinetic studies were carried out in 6-8-week-old male C57BL/6 mice having free access to food and water. Intravenous dosing was conducted at 10 mg/kg (5 mL/kg; vehicle: 10% DMSO-90% (25% HP-13-CD in water)) via tail vein injection, with sampling at 3 min, 8 min, 15 min, 30 min, 1, 2, 4, 6 and 8 hours, i.e., 9 time points in total (N=3/time point), using semi-serial bleeding for plasma. Oral compound administration, via gavage, was carried out at 100 mg/kg (10 mL/kg; vehicle: 5% DMSO-95% (0.5% HPMC+0.1% Tween 80 in water)), with sampling at 5 min, 15 min, 30 min, 1, 2, 4, 6, 8 and 24 hours, i.e., 9 time points in total (N=3/time point), using semi-serial bleeding for plasma.
For both intravenous and oral routes, the mice were restrained manually at the designated time points, with ca. 110 μL of blood being taken into K2EDTA tubes via the facial vein. Blood samples were put on ice and centrifuged to obtain plasma samples from which the concentration at each time point was measured by LC-MS/MS.

pEC50, pIC50: −log10 of the molar value. Where only a bound is given, the exact number is not on record here.

Consider `C=C(CC(=O)OCC(C)(C)C)C(=O)OCC(=O)O` [Example 92, 2-((2-methylene-4-(neopentyloxy)-4-oxobutanoyl)oxy)acetic acid], for which the results for the pIC50 in series [1] and in series [2] were 4.12 and 4.67, respectively. Also, the Emax with NRF2 stood at 109%. The pEC50 in the series with NRF2 was 4.42.

For the compound `C=C(CC(=O)OCCCCCCCC)C(=O)OCC(=O)N(C)CC(=O)O` [Example 98, 2-(N-methyl-2-((2-methylene-4-(octyloxy)-4-oxobutanoyl)oxy)acetamido)acetic acid], the figures for the pIC50 in series [1] and in series [2] were 5.68 and 5.37, respectively. In addition, the Emax in the series on NRF2 is 193%. Moreover, the pEC50 in the series on NRF2 is 4.83.

Consider `C=C(CC(=O)OCCCCCCCC)C(=O)OC(C)C(=O)N(C)CC(=O)O` (centres unmarked) [Example 100, N-methyl-N-(2-((2-methylene-4-(octyloxy)-4-oxobutanoyl)oxy)propanoyl)glycine], for which the pIC50 was 4.96 in series [1] and 5.29 in series [2]. Besides, the Emax in the series on NRF2 was 195%. Also, in the series with NRF2, the pEC50 was 4.31.

As for `C=C(CC(=O)OCCCCCCCC)C(=O)OCC(=O)N1CCC[C@H]1C(=O)O` [Example 99, (2-((2-methylene-4-(octyloxy)-4-oxobutanoyl)oxy)acetyl)-L-proline], in series [1], the pIC50 was 5.72. For the same compound, the pIC50 in series [2] is 5.60. Also, in the series on NRF2, the Emax came out at 227% and the pEC50 is 4.42.

Take `C=C(CC(=O)OC1CCCCCCC1)C(=O)OC1CS(=O)(=O)C1` [Example 54, 4-cyclooctyl 1-(1,1-dioxidothietan-3-yl) 2-methylenesuccinate]: in series [1], the pIC50 was 5.41. Moreover, the pIC50 in series [2] was 5.82. In addition, in the series on NRF2, the Emax worked out at 105% and the pEC50 was 5.55.

Take `C=C(CC(=O)OC1CCCCCCC1)C(=O)OC1CCN(S(C)(=O)=O)CC1` [Example 69, 4-cyclooctyl 1-(1-(methylsulfonyl)piperidin-4-yl) 2-methylenesuccinate]: the pIC50 in series [1] was 5.77. Moreover, in series [2], the pIC50 is 5.66. Further, in the series on NRF2, the maximal effect (Emax) was found to be 111% and the pEC50 is 4.83.

For `C=C(CC(=O)OCc1ccc(F)cc1)C(=O)OCCC(=O)O` [Example 81, 3-((4-((4-fluorobenzyl)oxy)-2-methylene-4-oxobutanoyl)oxy)propanoic acid], in series [1], the pIC50 was 4.00. The compound further showed a pIC50 in series [2] of 4.28. Also, in the series on NRF2, the Emax turned out to be 110% and the pEC50 is 4.60.

In the case of `C=C(CC(=O)OCCCCCC)C(=O)OCCC(=O)O` [Example 85, 3-((4-(hexyloxy)-2-methylene-4-oxobutanoyl)oxy)propanoic acid], in series [1], the pIC50 was 4.65. Further, the pIC50 in series [2] was 4.73. In addition, in the series with NRF2, the Emax came to 163% and the pEC50 is 4.60.

As for `C=C(CC(=O)OCc1ccc(F)cc1)C(=O)OCC(=O)O` [Example 93, 2-((4-((4-fluorobenzyl)oxy)-2-methylene-4-oxobutanoyl)oxy)acetic acid], in series [1], the pIC50 is 4.13. The negative logarithm of the IC50 (pIC50) in series [2] was 4.55. Further, in the series with NRF2, the Emax came to 118% and the pEC50 was 4.44.

As to `C=C(CC(=O)OCCCCCC)C(=O)OCC(=O)NS(=O)(=O)N(C)C` [Example 118, 1-(2-((N,N-dimethylsulfamoyl)amino)-2-oxoethyl) 4-hexyl 2-methylenesuccinate], the negative-log IC50 (pIC50) was 4.79 in series [1] and 4.85 in series [2]. Besides, in series [3] (time 0.05 h), the concentration at 0.05 h amounted to 3050 ng/mL. Further, in series [3] (time 0.133 h), the concentration at 0.133 h worked out at 161 ng/mL. Further, the concentration at 0.25 h in series [3] (time 0.25 h) turned out to be 8 ng/mL. Moreover, the concentration at 0.5 h in series [3] (time 0.5 h) worked out at 2.4 ng/mL. Also, the concentration at 1 h in series [3] (time 1 h) was under 0.8 ng/mL. Also, the concentration at 2 h in series [3] (time 2 h) was under 0.8 ng/mL. The concentration at 4 h in series [3] (time 4 h) is under 0.8 ng/mL. Besides, the concentration at 6 h in series [3] (time 6 h) is under 0.8 ng/mL. Moreover, the concentration at 8 h in series [3] (time 8 h) was under 0.8 ng/mL.

Regarding `C=C(CC(=O)OCCCCCCCC)C(=O)OC1CN(C(C)=O)C1` [Example 50, 1-(1-acetylazetidin-3-yl) 4-octyl 2-methylenesuccinate], the pIC50 in series [1] was 5.57. Further, the pIC50 in series [2] is 5.77. Further, in the series with NRF2, the Emax came to 225% and the pEC50 was 5.49.

Regarding `C=C(CC(=O)OCCCCCCCC)C(=O)OC(C)C(=O)N1CCC[C@H]1C(=O)O` (stereo partly drawn) [Example 101, (2-((2-methylene-4-(octyloxy)-4-oxobutanoyl)oxy)propanoyl)-L-proline], in series [1], the pIC50 is 4.82. This compound showed a pIC50 in series [2] of 5.33. In addition, in the series with NRF2, the Emax worked out at 186% and the pEC50 was 4.42.

Turning to `C=C(CC(=O)OCCCCCCCC)C(=O)OC(C)C(=O)NCC(=O)O` (centres unmarked) [Example 102, (2-((2-methylene-4-(octyloxy)-4-oxobutanoyl)oxy)propanoyl)glycine], the pIC50 in series [1] is 5.82. In series [2], this compound showed a pIC50 of 5.96. In the series with NRF2, the maximal response (Emax) stood at 191% and the pEC50 is 5.19.
